Holding throughout (test): NCI tumour cell line growth inhibition, 48 h
Experiment [1] has as its system MDA-N.
The test system of experiment [2] is RXF-631 renal.
The test system of experiment [3] is DLD-1 colon.
For experiment [4], the system named is DMS 273 small cell lung.
For experiment [5], the system named is KM20L2 colon.
In experiment [6] the test system is SNB-78 CNS.
Experiment [7] relates to LXFL 529 NSCLC.
The subject of experiment [8] is M19-MEL melanoma.
The test system of experiment [9] is P388/ADR leukemia.
The test system of experiment [10] is SN12K1 renal.
For experiment [11], the system named is P388 leukemia.

Molecules are shown by their SMILES.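 The compound was tested at five concentrations on cells cultured in 96-well plates, with a 48-hour exposure period. At the GI50, growth is halved. TGI: total growth inhibition.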

The values that follow come from PubChem BioAssay (NCI).

In turn, `NCCOc1ccccn1` came in with a TGI in [1] above 100 µM.

`CC(=O)Nc1ccc(C(=O)N[C@@H]2C(=O)N3[C@@H]2SC(C)(C)[C@@H]3C(=O)O)cn1` gave a TGI in experiment [1] above 100 µM.

On to `N#CC(C#N)=C1NC(=O)C(c2ccccc2)C(=O)N1` (stereo not drawn), for which the TGI in experiment [2], in experiment [3], in experiment [4], in [5], in experiment [6] and in [7] was above 100 µM throughout. The molecule further had a TGI in experiment [8] above 100 µM.

On to `CC(C)(C)c1ccc(-c2nnc(SCc3ccc(Cl)cc3)n2-c2cccc(C(F)(F)F)c2)cc1`, for which the TGI in experiment [1] was above 100 µM.

`O=C(OCCOCCOC(=O)c1c[nH]cc1-c1ccccc1)c1c[nH]cc1-c1ccccc1`: the TGI was 71.4 µM in experiment [3]; 30.6 µM in experiment [4]; 46 µM in experiment [5]; 68.7 µM in experiment [6]; 69.2 µM in experiment [7]; 34 µM in experiment [8].

For `CCOc1ccc(NC(=O)C2=C(C)NC(C)=C(C(=O)Nc3ccc(OCC)cc3)C2c2ccc([N+](=O)[O-])cc2)cc1`, the TGI was above 100 µM in [3]; 56.3 µM in experiment [5]; above 100 µM in [6]; above 100 µM in [7]; above 100 µM in experiment [8].

On to `C[Si](C)(C)/C(Br)=C\CCN1C(=O)CCC1O` (stereo not drawn), for which the TGI in [4], in experiment [5], in experiment [6], in experiment [7] and in [8] was above 100 µM throughout.

Turning to `O=c1c2ccccc2nc(-c2ccc(Cl)cc2)n1O`, the TGI in experiment [1] is above 100 µM.

For the molecule `CC(CN(CP(=O)([O-])[O-])CP(=O)([O-])[O-])N(CP(=O)([O-])[O-])CP(=O)([O-])[O-].N[C@@H]1CCCC[C@@H]1N.[Pt+2]` (stereo not drawn), the GI50 in experiment [3], in [4], in experiment [5], in [6] and in [7] was above 100 µM each time. Also, the TGI in experiment [3], in experiment [4], in [5], in experiment [6] and in experiment [7] was above 100 µM throughout.

With `Cn1cc(C(=O)C2CCCCC2)ccc1=O`, the TGI in [2], in experiment [3], in [4], in experiment [5] and in [6] was above 100 µM throughout.

For the molecule `CC(=O)OCCOCNC(=S)N/N=C(\C)c1ccco1`, the TGI in experiment [2], in experiment [3], in experiment [4], in experiment [5], in [6] and in experiment [7] was above 100 µM throughout. In experiment [8], this molecule displayed a TGI above 100 µM.

Take `O=Cc1ccc(C(F)(F)F)cc1.[C-]#[O+].[C-]#[O+].[C-]#[O+].[Cr]`: in experiment [1], the GI50 was 18 µM and the TGI turned out to be 55.1 µM.

`Cc1ccc(S(=O)(=O)N2CCCCC2CCO)cc1` (stereo not drawn): the TGI in [3], in experiment [4], in experiment [5], in experiment [6], in experiment [7] and in [8] was above 100 µM in each case.

As for `CCCCOC(=O)N[C@H]1CCc2cc(OC)c(OC)c(OC)c2-c2ccc(SC)c(=O)cc21`, the TGI in experiment [3] is above 100 µM; in experiment [5] it was below 0.01 µM; in experiment [6], above 4.64 µM; in experiment [7] it was 29.5 µM; in experiment [1], below 0.01 µM; in [8], 65.7 µM.

In the case of `O=C(CC1C(=O)Nc2ccccc2S1=O)Nc1cccc(Cl)c1` (stereo not drawn), the TGI is above 100 µM in experiment [3]; above 100 µM in experiment [5]; above 100 µM in experiment [6]; above 100 µM in [7]; 56.1 µM in [1]; above 100 µM in experiment [8].

In the case of `C[C@H](NC(=O)OC1C2C=CC(O)C1CC2)c1ccccc1` (stereo partly drawn), the TGI in experiment [3], in experiment [4], in [5], in [6] and in experiment [7] was above 100 µM throughout.

For `CC(C)(C)NNc1c([N+](=O)[O-])cnn(-c2ccccc2)c1=O`, the TGI is 9.52 µM in experiment [3]; 10.4 µM in experiment [4]; 13.1 µM in experiment [5]; 58.7 µM in experiment [6]; 3.25 µM in [7]; 5.61 µM in [8].

For `CC(=O)OC1COC(N2C(=O)C(=O)c3cc(Br)c([N+](=O)[O-])cc32)C(OC(C)=O)C1OC(C)=O` (stereo not drawn), the TGI in experiment [2], in experiment [3], in [4], in [5], in experiment [6] and in experiment [7] was above 100 µM in each case. The same molecule came in with a TGI in experiment [8] of 62.5 µM.

With `CCN(CCCl)CCNc1c2ccccc2nc2ccc(OC)cc12`, the TGI was found to be 4.4 µM in [2]; 3.46 µM in experiment [3]; 2.02 µM in experiment [4]; 2.29 µM in [9]; 3.45 µM in experiment [5]; 4.68 µM in experiment [6]. For the same molecule, the TGI is 3.08 µM in experiment [10], 1.87 µM in experiment [7], 2.24 µM in experiment [8] and 0.58 µM in [11].

Take `CC(O)CN(CCN(CC(C)O)CC(C)O)CC(C)O.O=[N+]([O-])O.[Cu+2]` (stereo not drawn): in experiment [1], the GI50 is above 100 µM and the TGI is above 100 µM.

Regarding `CC(=O)O[C@H]1CC[C@@]2(C)C(=CC[C@@H]3C2CC[C@]2(C)Nc4oncc4CC32)C1` (stereo partly drawn), the TGI in [2] was above 100 µM; in experiment [3], above 100 µM; in [4], 73.5 µM; in experiment [5], above 100 µM; in experiment [7], 26.5 µM; in [8], above 100 µM.

`Cc1ccccc1NC(=O)c1[nH]c(=S)nc(N)c1-c1ccccc1C`: the TGI in experiment [3], in [4], in [5], in experiment [6], in experiment [7] and in experiment [8] was above 100 µM each time.

Take `CCCCCCCCCCCCC(Br)C(=O)SCCNC(=O)CCNC(=O)[C@@H](O)C(C)(C)COP(=O)(O)OP(=O)(O)OCC1OC(n2cnc3c(N)ncnc32)C(O)C1OP(=O)(O)O` (stereo partly drawn): the TGI in experiment [3], in experiment [4], in experiment [5], in [6], in experiment [7] and in [8] was above 56.5 µM each time.

As to `COC(=O)/C(C#N)=C1\N=NNN1CCCc1ccccc1`, the TGI in [2], in [3], in experiment [4], in [6], in experiment [7] and in [8] was above 100 µM throughout.

For the molecule `COc1ccccc1NC(=O)C1=C(C)NC(C)=C(C(=O)Nc2ccccc2OC)C1c1ccc(C(C)C)cc1`, the TGI in [2], in experiment [3], in experiment [4], in experiment [5], in experiment [7] and in [8] was above 100 µM each time.

With `CCOC1NC(=O)Oc2ccccc21` (stereo not drawn), the TGI in [1] is above 100 µM.

`CC1OC(OP(=O)(OCc2ccccc2)OCc2ccccc2)C(OC(=O)c2ccccc2)C(OC(=O)c2ccccc2)C1I` (stereo not drawn): the TGI in [3], in experiment [4], in experiment [5], in experiment [7] and in [8] was above 100 µM each time.

Take `O=C(/C=C/c1ccccc1F)C(c1ccccc1)c1ccccc1`: the TGI is 12.7 µM in experiment [3]; 38.1 µM in experiment [4]; 15.6 µM in experiment [5]; 34.8 µM in experiment [6]; 12 µM in experiment [7].

Consider `C/C=C/C1(NS(=O)(=O)c2ccc(C)cc2)CCC(C(C)(C)C)CC1` (stereo not drawn), for which the TGI is 71.8 µM in [2]; above 100 µM in [3]; 31.5 µM in experiment [4]; 38.7 µM in experiment [5]; 64.1 µM in experiment [6]; above 100 µM in experiment [7]. For the same molecule, the TGI in experiment [8] was 41 µM.

Turning to `CC(C)(C)c1ccccc1NS(=O)(=O)c1ccccc1`, the TGI in experiment [2], in experiment [4], in [5], in experiment [6], in [7] and in [8] was above 100 µM each time.

Consider `Cc1c(Cl)cccc1NC(=O)C(=O)C1C(=O)NC(=O)NC1=O`, for which the TGI in [3], in [4], in [5], in [6], in experiment [7] and in experiment [8] was above 100 µM each time.

Consider `CC(C)(C)c1cc(C(O)(C(F)(F)F)C(F)(F)F)c2c(c1)C(C(F)(F)F)(C(F)(F)F)OC(c1ccccc1)(C(C)(C)C)N2` (stereo not drawn), for which the TGI was 14.6 µM in [3]; 13.6 µM in experiment [4]; 21 µM in experiment [5]; 24.1 µM in experiment [6]; 12.5 µM in [7]; 13.8 µM in experiment [8].

As to `O=C1c2cccnc2-c2nc(-c3ccc([N+](=O)[O-])cc3)cc3c2c1nc1ccccc13`, in experiment [1], the GI50 was 1.75 µM and the TGI turned out to be 3.22 µM.

As to `COc1ccc(Cc2ccccc2C(=O)O)c2ccccc12`, in [1], the TGI turned out to be 74.4 µM.

As for `CCOC(=O)[C@H]1Nc2ccc(O)cc2C2c3ccccc3CC21` (stereo partly drawn), the TGI in experiment [2], in experiment [3], in experiment [4], in [5], in experiment [6] and in experiment [7] was above 100 µM throughout. In addition, the TGI in experiment [8] is above 100 µM.

Regarding `O=C1C(c2ccccc2)=C(c2ccccc2)C(c2ccccc2)/C1=C1\C(=O)C(c2ccccc2)=C(c2ccccc2)C1c1ccccc1` (stereo not drawn), the TGI in experiment [3], in experiment [4], in experiment [5], in [6], in [7] and in [8] was above 100 µM throughout.

Regarding `O=Cc1cc(O)c(O)c(O)c1-c1c(C=O)cc(O)c(O)c1O`, the TGI in experiment [3], in [4], in experiment [5], in [6], in [7] and in [8] was above 100 µM each time.

With `O=C(O)/C(Cl)=C(/Cl)C(=O)Nc1cccc(Cl)c1`, the TGI came out at 49.1 µM in [2]; 34 µM in experiment [3]; 18.9 µM in experiment [4]; 47.3 µM in [5]; 61 µM in experiment [6]; 30.3 µM in [7]. Moreover, the values for the TGI in [1] and in [8] were 37.4 µM and 30.4 µM, respectively.

`Cc1cc(Cl)ccc1N1C(=O)C(=O)C(c2nc3ccccc3s2)C(=O)C1=O`: the TGI in [2], in [3], in experiment [4], in experiment [5], in [6] and in experiment [7] was above 100 µM each time.

Turning to `Cc1cc2c(=O)cc(-c3ccc(Cl)cc3)oc2c(C(=O)O)c1C`, the TGI in experiment [2], in [3], in [4], in experiment [5], in experiment [6] and in experiment [7] was above 100 µM throughout. Also, in [8], the TGI was above 100 µM.
